# Laboratory results as given in US9329185B2, “Sulfonate compounds” (University of Massachusetts, priority 2013, dated 2016).
# Experiments:
# [1] = Cleavage of reductive-labile protecting group by a reducing agent (TLC analysis); type: physicochemical; conditions: 1 mM reducing agent (dithiothreitol or tris(2-carboxyethyl)phosphine), 30 minutes, room temperature, water (pH 7), analyzed by TLC
# Experimental: Compound 1 was treated with 1 mM of a reducing agent, i.e., dithiothreitol or tris(2-carboxyethyl)phosphine, for 30 minutes at room temperature in water (pH 7). The solution was analyzed by TLC. A control experiment was conducted by analyzing an aqueous solution containing Compound 1 without being treated with a reducing agent by using TLC.
melting point,cleavage of the protecting group to form a deprotected sulfonate dye [1],SMILES
220 to 222 °C (dec.),,Cc1ccc(C(OS(=O)(=O)CCCN2CCCc3cc4c(cc32)Oc2cc3c(cc2=N4)CCC[N+]=3CCCS(=O)(=O)OC(c2ccc(C)cc2)C(F)(F)F)C(F)(F)F)cc1 (stereo not drawn)
,rapidly cleaved,"CSSc1ccc(C(OS(=O)(=O)c2cccc3c(N(C)C)cccc23)C(F)(F)F)cc1 (stereo not drawn) [Compound 1, 2,2,2-trifluoro-1-(4-(methyldisulfanyl)phenyl)-ethyl 5-(dimethylamino)naphthalene-1-sulfonate]"
61 to 63 °C,,"Cc1ccc(C(OS(=O)(=O)CCCCl)C(F)(F)F)cc1 (stereo not drawn) [Compound 22, 2,2,2-trifluoro-1-(p-tolyl)ethyl 3-chloropropane-1-sulfonate]"
